Here are results for 1 compound from patent publication US20180044418A1, “COMBINATION OF A PD-1 ANTAGONIST AND VORINOSTAT FOR TREATING CANCER” (Merck Sharp & Dohme Corp., priority 2016, published 2018).

For assay [1], the system named is CT-26 cells. Description: Anti-tumor response in CT-26 tumor-bearing mice. It is filed as in vivo, BALB/cAnN mice.
Source text: (§1) This experiment compared the anti-tumor response of tumor-bearing mice to treatment with one of three regimens: monotherapy with a murine anti-mouse PD-1 monoclonal antibody (anti-PD-1), monotherapy with Vorinostat and combination therapy with these two agents administered concurrently.
Tumor-bearing mice for this study were initiated by implanting 3×10^5 log-phase and sub-confluent CT-26 cells on the right lower dorsal flank of 7-8 week old female BALB/cAnN mice with an average body weight of 18 grams. When the mean tumor volume in these mice reached ˜100 cubic mm (60mm^3-150 mm^3) (FIG. 1(A)), the tumor-bearing mice were randomized to 4 treatment groups of 12 mice per group: (1) Isotype control+Vehicle control group;(2) anti-PD-1 +Vehicle control; (3) Vorinostat +Isotype control and; (4) anti-PD-1+Vorinostat. A monoclonal antibody of murine isotype IgG1 against murine PD-1 and isotype control were obtained from internal sources. The isotype control was a mouse monoclonal antibody specific for adenoviral hexon 25 and was of the isotype IgG1. […] Anti-PD-1 was administered to treatment groups 2 and 4 at 10 mg/kg i.p. every 5 days for each of 5 cycles. Vorinostat was administered to treatment groups 3 and 4 at 150 mg/kg every day for 27 days.
Assay [2] deals with RENCA cells. The assay is described as follows: Anti-tumor response in RENCA tumor-bearing mice.
Source text: as §1
Tumor-bearing mice for this study were initiated by implanting 1×10^6 log-phase and sub-confluent RENCA cells on the right lower dorsal flank of 7-8 week old female BALB/cmice with an average body weight of 19 grams. When the mean tumor volume in these mice reached ˜100 cubic mm (65mm^3-140 mm^3) (FIG. 9(A)), the tumor-bearing mice were randomized to 4 treatment groups of 12 mice per group: (1) Isotype control +Vehicle control group;(2) Anti-PD-1 +Vehicle control; (3) Vorinostat+Isotype control and; (4) Anti-PD-1 +Vorinostat. A monoclonal antibody of murine isotype IgG1 against murine PD-1 and isotype control were obtained from internal sources. The isotype control was a mouse monoclonal antibody specific for adenoviral hexon 25 and was of the isotype IgG1. The formulations for each reagent was as follows: Isotype contro1:75 mM NaCl, 10 mM sodium phosphate, 3% sucrose, pH7.3; anti-PD-1: 20 mM sodium acetate, 7% sucrose, pH5.5; and Vorinostat vehicle: 0.5% HPC (hydroxypropylcellulose) with 0.002% SDS (sodium dodecyl sulfate) in sterile water. Anti-PD-1 was administered to treatment groups 2 and 4 at 5 mg/kg i.p. every 5 days for each of 5 cycles. Vorinostat was administered to treatment groups 3 and 4 at 150 mg/kg every day for 29 days.

With `O=C(CCCCCCC(=O)Nc1ccccc1)NO` [Vorinostat, suberoylanilide hydroxamic acid], the “effect of Vorinostat on anti-PD-1 anti-tumor activity in the combination treatment arm” value in assay [1] and in assay [2] was “did not demonstrate antagonistic effects” in each case. Also, the “complete regressions (CR)” value in assay [1] (12 per group, measured through Day 29, anti-PD-1 10 mg/kg i.p. every 5 days x5, Vorinostat 150 mg/kg every day for 27 days) was “No CRs”. Moreover, the survival turned out to be 10% in assay [1] (at Day 30, FIG. 8(B)) and 23% in assay [2] (at Day 30, FIG. 9(B)). Further, the “complete regressions (CRs)” value in assay [2] (monotherapy arms, measured through Day 29) was “No CRs”.
